The record followed here is patent US12371428B2 (Exelixis, Inc., priority 2019, dated 2025).

Assay [1] concerns the target Human MER (residues 528-999) (Homo sapiens (Human), UniProt Q12866). Description: Human Mer kinase assay, HTRF KinEase (Example C-2). In kind it is biochemical. The conditions noted are these: protocol of Example C-2 (other compounds). Put shortly:
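Recombinant MER 528-999 (1 ng/well) in buffer with 5 mM MgCl2 and 1 mM DTT was reacted with biotinylated peptide and ATP at Km (40 μM) for 60 min at room temperature. EDTA stop with SA-XL665 and Eu3+ TK antibody, then 665/620 nm HTRF read; IC50 from 4-parameter fit.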
A general note: TR-FRET usually uses a lanthanide donor and a delayed reading to cut background.

The target in assay [2] is KDR (phospho-KDR, VEGF165-stimulated HUVEC cells) (Homo sapiens (Human), UniProt P35968). Description: KDR autophosphorylation ELISA in HUVEC cells (Example G). In kind it is cell-based. To be noted: cellular activity; KDR autophosphorylation ELISA in HUVEC cells. Put shortly: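 Read-out is phospho-KDR measured by ELISA in lysates of VEGF165-stimulated (100 ng/mL, 5 min) HUVEC that were serum-starved 24 h and then pre-exposed 1 h to compound across 8 doses in 0.3% DMSO. Unstimulated lysates defined 0% and stimulated vehicle lysates 100% activity; IC50 values come from 4-parameter logistic regression.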
Sequence of KDR (phospho-KDR, VEGF165-stimulated HUVEC cells) (P35968 20-1356): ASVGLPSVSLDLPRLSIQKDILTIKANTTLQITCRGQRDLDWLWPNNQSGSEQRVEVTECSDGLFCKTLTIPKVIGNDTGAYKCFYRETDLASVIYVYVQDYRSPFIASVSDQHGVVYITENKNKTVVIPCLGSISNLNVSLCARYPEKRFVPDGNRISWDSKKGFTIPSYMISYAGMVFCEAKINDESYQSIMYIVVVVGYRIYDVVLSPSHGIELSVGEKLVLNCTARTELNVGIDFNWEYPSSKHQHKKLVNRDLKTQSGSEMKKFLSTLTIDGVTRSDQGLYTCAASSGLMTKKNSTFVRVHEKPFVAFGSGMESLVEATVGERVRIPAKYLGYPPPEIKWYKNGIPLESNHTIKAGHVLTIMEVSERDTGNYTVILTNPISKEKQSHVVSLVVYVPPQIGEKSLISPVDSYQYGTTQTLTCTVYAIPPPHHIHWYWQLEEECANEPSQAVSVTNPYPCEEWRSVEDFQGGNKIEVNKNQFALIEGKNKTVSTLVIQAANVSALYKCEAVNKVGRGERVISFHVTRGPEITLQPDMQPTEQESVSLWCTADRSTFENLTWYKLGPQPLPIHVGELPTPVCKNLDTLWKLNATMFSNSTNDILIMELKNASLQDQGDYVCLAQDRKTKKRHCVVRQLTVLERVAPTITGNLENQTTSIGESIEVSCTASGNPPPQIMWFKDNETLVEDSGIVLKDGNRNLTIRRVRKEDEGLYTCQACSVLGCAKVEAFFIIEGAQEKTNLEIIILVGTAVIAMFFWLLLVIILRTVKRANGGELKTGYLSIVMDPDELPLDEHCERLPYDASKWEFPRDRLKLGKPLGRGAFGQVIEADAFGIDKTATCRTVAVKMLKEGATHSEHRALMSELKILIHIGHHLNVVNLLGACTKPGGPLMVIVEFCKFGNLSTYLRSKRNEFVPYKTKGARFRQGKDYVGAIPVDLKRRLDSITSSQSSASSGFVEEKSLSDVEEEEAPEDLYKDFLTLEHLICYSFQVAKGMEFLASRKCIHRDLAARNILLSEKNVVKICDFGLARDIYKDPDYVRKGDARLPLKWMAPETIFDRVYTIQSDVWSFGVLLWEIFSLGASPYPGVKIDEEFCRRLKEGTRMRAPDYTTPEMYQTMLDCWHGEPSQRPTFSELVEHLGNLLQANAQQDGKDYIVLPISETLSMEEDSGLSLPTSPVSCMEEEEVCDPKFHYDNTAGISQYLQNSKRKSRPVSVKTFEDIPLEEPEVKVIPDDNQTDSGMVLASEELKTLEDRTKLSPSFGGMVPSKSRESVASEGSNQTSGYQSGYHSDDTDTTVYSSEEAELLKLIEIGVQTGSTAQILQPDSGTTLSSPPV
(An ELISA detects its analyte on a solid surface through an enzyme-linked reagent.)

Sequence of Human MER (residues 528-999) (Q12866 528-999): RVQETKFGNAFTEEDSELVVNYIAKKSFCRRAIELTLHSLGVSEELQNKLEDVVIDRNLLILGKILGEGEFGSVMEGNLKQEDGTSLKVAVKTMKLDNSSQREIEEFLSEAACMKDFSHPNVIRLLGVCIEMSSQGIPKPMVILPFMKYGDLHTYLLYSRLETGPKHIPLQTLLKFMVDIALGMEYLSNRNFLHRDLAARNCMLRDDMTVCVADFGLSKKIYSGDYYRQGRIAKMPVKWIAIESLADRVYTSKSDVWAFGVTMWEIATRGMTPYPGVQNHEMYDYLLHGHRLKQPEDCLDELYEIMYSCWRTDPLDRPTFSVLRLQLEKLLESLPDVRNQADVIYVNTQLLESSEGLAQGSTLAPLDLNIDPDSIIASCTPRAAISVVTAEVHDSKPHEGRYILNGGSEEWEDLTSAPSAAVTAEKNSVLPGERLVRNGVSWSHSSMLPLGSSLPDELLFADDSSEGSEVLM

As a reminder, the IC50 is the concentration at which inhibition is half-maximal. For `COc1cc2nccc(Oc3ccc(NC(=O)c4cn(C(C)(C)C)cc(-c5ccc(F)cc5)c4=O)cc3F)c2nc1OC` [Compound 48, 1-tert-Butyl-N-[4-[(6,7-dimethoxy-1,5-naphthyridin-4-yl)oxy]-3-fluorophenyl]-5-(4-fluorophenyl)-4-oxopyridine-3-carboxamide], the values for the 50% inhibitory concentration (IC50) in assay [1] and in assay [2] were less than 100 nM and greater than 300 nM, respectively.

As to `COc1cc2nccc(Oc3ccc(NC(=O)c4cn(-c5ccn(C)n5)cc(-c5ccc(F)cc5)c4=O)cc3F)c2nc1OC` [Compound 53, N-[4-[(6,7-Dimethoxy-1,5-naphthyridin-4-yl)oxy]-3-fluorophenyl]-5-(4-fluorophenyl)-1-(1-methylpyrazol-3-yl)-4-oxopyridine-3-carboxamide], the 50% inhibitory concentration (IC50) in assay [1] was less than 100 nM; in assay [2] it was greater than 300 nM.

Regarding `COc1cc2nccc(Oc3ccc(NC(=O)c4cn(C)c(C)c(-c5ccc(F)cc5)c4=O)cc3F)c2nc1OC` [Compound 58, N-[4-[(6,7-Dimethoxy-1,5-naphthyridin-4-yl)oxy]-3-fluorophenyl]-5-(4-fluorophenyl)-1,6-dimethyl-4-oxopyridine-3-carboxamide], the IC50 in assay [1] and in assay [2] was less than 100 nM in each case.

`COc1cc2nccc(Oc3ccc(NC(=O)c4cn(C5(C(F)(F)F)CC5)cc(-c5ccc(F)cc5)c4=O)cc3F)c2nc1OC` [Compound 59, N-[4-[(6,7-Dimethoxy-1,5-naphthyridin-4-yl)oxy]-3-fluorophenyl]-5-(4-fluorophenyl)-4-oxo-1-[1-(trifluoromethyl)cyclopropyl]pyridine-3-carboxamide]: the IC50 in assay [1] was less than 100 nM; in assay [2] it was greater than 300 nM.

For the compound `COc1cc2nccc(Oc3ccc(NC(=O)c4cn(-c5cnn(C(F)F)c5)cc(-c5ccc(F)cc5)c4=O)cc3F)c2nc1OC` [Compound 60, 1-[1-(Difluoromethyl)pyrazol-4-yl]-N-[4-[(6,7-dimethoxy-1,5-naphthyridin-4-yl)oxy]-3-fluorophenyl]-5-(4-fluorophenyl)-4-oxopyridine-3-carboxamide], the values for the IC50 in assay [1] and in assay [2] were less than 100 nM and greater than 300 nM, respectively.

In the case of `COc1cc2nccc(Oc3ccc(NC(=O)c4cn(-c5cc[nH]n5)cc(-c5ccc(F)cc5)c4=O)cc3F)c2nc1OC` [Compound 61, N-[4-[(6,7-Dimethoxy-1,5-naphthyridin-4-yl)oxy]-3-fluorophenyl]-5-(4-fluorophenyl)-4-oxo-1-(1H-pyrazol-3-yl)pyridine-3-carboxamide], the IC50 in assay [1] is less than 100 nM; in assay [2], greater than 300 nM.

Regarding `COc1cc2nccc(Oc3ccc(NC(=O)c4cn(-c5cn[nH]c5)cc(-c5ccc(F)cc5)c4=O)cc3F)c2nc1OC` [Compound 62, N-[4-[(6,7-Dimethoxy-1,5-naphthyridin-4-yl)oxy]-3-fluorophenyl]-5-(4-fluorophenyl)-4-oxo-1-(1H-pyrazol-4-yl)pyridine-3-carboxamide], the IC50 in assay [1] is less than 100 nM; in assay [2] it was greater than 300 nM.

`CCn1cc(C(=O)Nc2ccc(Oc3ccnc4cc(OC)c(OC)nc34)c(F)c2)c(=O)c(-c2ccc(F)cc2)c1C` [Compound 63, N-[4-[(6,7-Dimethoxy-1,5-naphthyridin-4-yl)oxy]-3-fluorophenyl]-1-ethyl-5-(4-fluorophenyl)-6-methyl-4-oxopyridine-3-carboxamide]: the 50% inhibitory concentration (IC50) in assay [1] and in assay [2] was less than 100 nM in each case.

In the case of `COc1cnc2c(Oc3ccc(NC(=O)c4cnc(C)c(-c5ccc(F)cc5)c4O)cc3F)ccnc2c1` [Compound 64, N-[3-Fluoro-4-[(7-methoxy-1,5-naphthyridin-4-yl)oxy]phenyl]-5-(4-fluorophenyl)-4-hydroxy-6-methylpyridine-3-carboxamide], the IC50 in assay [1] and in assay [2] was less than 100 nM in each case.

`COc1cc2nccc(Oc3ccc(NC(=O)c4cn(C)c(C)c(-c5ccc(F)cc5)c4=O)cc3)c2nc1OC` [Compound 65, N-[4-[(6,7-Dimethoxy-1,5-naphthyridin-4-yl)oxy]phenyl]-5-(4-fluorophenyl)-1,6-dimethyl-4-oxopyridine-3-carboxamide]: the half-inhibitory concentration (IC50) in assay [1] and in assay [2] was less than 100 nM in each case.

`COc1cnc2c(Oc3ccc(NC(=O)c4c(C)nc(C)c(-c5ccc(F)cc5)c4O)cc3F)ccnc2c1` [Compound 66, N-[3-Fluoro-4-[(7-methoxy-1,5-naphthyridin-4-yl)oxy]phenyl]-5-(4-fluorophenyl)-4-hydroxy-2,6-dimethylpyridine-3-carboxamide]: the IC50 in assay [1] and in assay [2] was less than 100 nM each time.

For the compound `COc1ccc2nccc(Oc3ccc(NC(=O)c4c(C)nc(C)c(-c5ccc(F)cc5)c4O)cc3F)c2n1` [Compound 67, N-[3-Fluoro-4-[(6-methoxy-1,5-naphthyridin-4-yl)oxy]phenyl]-5-(4-fluorophenyl)-4-hydroxy-2,6-dimethylpyridine-3-carboxamide], the 50% inhibitory concentration (IC50) in assay [1] and in assay [2] was less than 100 nM throughout.

With `COCCOc1nc2c(Oc3ccc(NC(=O)c4cnc(C)c(-c5ccc(F)cc5)c4O)cc3F)ccnc2cc1OC` [Compound 68, N-[3-Fluoro-4-[[7-methoxy-6-(2-methoxyethoxy)-1,5-naphthyridin-4-yl]oxy]phenyl]-5-(4-fluorophenyl)-4-hydroxy-6-methylpyridine-3-carboxamide], the 50% inhibitory concentration (IC50) in assay [1] and in assay [2] was less than 100 nM throughout.

For the compound `COc1cc2nccc(Oc3ccc(NC(=O)c4cnc(C)c(-c5ccc(F)cc5C)c4O)cc3F)c2nc1OC` [Compound 69, N-[4-[(6,7-Dimethoxy-1,5-naphthyridin-4-yl)oxy]-3-fluorophenyl]-5-(4-fluoro-2-methylphenyl)-4-hydroxy-6-methylpyridine-3-carboxamide], the IC50 in assay [1] and in assay [2] was less than 100 nM in each case.

As to `COc1ccc2nccc(Oc3ccc(NC(=O)c4c(C)nc(C)c(-c5ccc(F)cc5C)c4O)cc3F)c2n1` [Compound 70, N-[3-Fluoro-4-[(6-methoxy-1,5-naphthyridin-4-yl)oxy]phenyl]-5-(4-fluoro-2-methylphenyl)-4-hydroxy-2,6-dimethylpyridine-3-carboxamide], the IC50 in assay [1] and in assay [2] was less than 100 nM throughout.

For the compound `COc1cc2nccc(Oc3ccc(NC(=O)c4cnc(CO)c(-c5ccc(F)cc5)c4O)cc3F)c2nc1OC` [Compound 71, N-[4-[(6,7-Dimethoxy-1,5-naphthyridin-4-yl)oxy]-3-fluorophenyl]-5-(4-fluorophenyl)-4-hydroxy-6-(hydroxymethyl)pyridine-3-carboxamide], the IC50 in assay [1] and in assay [2] was less than 100 nM throughout.

`COc1cc2nccc(Oc3ccc(NC(=O)c4cn(C)c(CO)c(-c5ccc(F)cc5)c4=O)cc3F)c2nc1OC` [Compound 72, N-[4-[(6,7-Dimethoxy-1,5-naphthyridin-4-yl)oxy]-3-fluorophenyl]-5-(4-fluorophenyl)-6-(hydroxymethyl)-1-methyl-4-oxopyridine-3-carboxamide]: the IC50 was less than 100 nM in assay [1] and 100 to 300 nM in assay [2].

Turning to `COc1cc2nccc(Oc3ccc(NC(=O)c4cn(C)c(CF)c(-c5ccc(F)cc5)c4=O)cc3F)c2nc1OC` [Compound 73, N-[4-[(6,7-Dimethoxy-1,5-naphthyridin-4-yl)oxy]-3-fluorophenyl]-6-(fluoromethyl)-5-(4-fluorophenyl)-1-methyl-4-oxopyridine-3-carboxamide], the IC50 in assay [1] and in assay [2] was less than 100 nM each time.

Regarding `COc1cc2nccc(Oc3ccc(NC(=O)c4cn(CC(F)(F)F)c(C)c(-c5ccc(F)cc5)c4=O)cc3F)c2nc1OC` [Compound 74, N-[4-[(6,7-Dimethoxy-1,5-naphthyridin-4-yl)oxy]-3-fluorophenyl]-5-(4-fluorophenyl)-6-methyl-4-oxo-1-(2,2,2-trifluoroethyl)pyridine-3-carboxamide], the IC50 in assay [1] was less than 100 nM; in assay [2], 100 to 300 nM.

Regarding `COc1cc2nccc(Oc3ccc(NC(=O)c4cn(C)c(C)c(-c5ccc(F)cc5C)c4=O)cc3F)c2nc1OC` [Compound 75, N-[4-[(6,7-Dimethoxy-1,5-naphthyridin-4-yl)oxy]-3-fluorophenyl]-5-(4-fluoro-2-methylphenyl)-1,6-dimethyl-4-oxopyridine-3-carboxamide], the half-maximal inhibitory concentration (IC50) in assay [1] and in assay [2] was less than 100 nM each time.

With `CNc1c(-c2ccc(F)cc2)c(=O)c(C(=O)Nc2ccc(Oc3ccnc4cc(OC)c(OC)nc34)c(F)c2)cn1C` [Compound 76, N-[4-[(6,7-Dimethoxy-1,5-naphthyridin-4-yl)oxy]-3-fluorophenyl]-5-(4-fluorophenyl)-1-methyl-6-(methylamino)-4-oxopyridine-3-carboxamide], the IC50 in assay [1] and in assay [2] was less than 100 nM each time.

On to `COc1cc2nccc(Oc3ccc(NC(=O)c4cn(C)c(C#N)c(-c5ccc(F)cc5)c4=O)cc3F)c2nc1OC` [Compound 77, 6-Cyano-N-[4-[(6,7-dimethoxy-1,5-naphthyridin-4-yl)oxy]-3-fluorophenyl]-5-(4-fluorophenyl)-1-methyl-4-oxopyridine-3-carboxamide], for which the IC50 is less than 100 nM in assay [1] and greater than 300 nM in assay [2].

With `COc1cc2nccc(Oc3ccc(NC(=O)c4cn(C)c(OC)c(-c5ccc(F)cc5)c4=O)cc3F)c2nc1OC` [Compound 78, N-[4-[(6,7-Dimethoxy-1,5-naphthyridin-4-yl)oxy]-3-fluorophenyl]-5-(4-fluorophenyl)-6-methoxy-1-methyl-4-oxopyridine-3-carboxamide], the 50% inhibitory concentration (IC50) in assay [1] was less than 100 nM; in assay [2], 100 to 300 nM.
